Read-outs that look alike come from different tables or passages of the source.
Assays:
[1] = tested on: Human pancreatic (PSN‐1) carcinoma cell line; assay: MTT assay, 2D cell culture; assay type: cell-based
Protocol: (§1) Compounds [2B]BF4, [2C]CF3SO3, [2D]CF3SO3 and [3F]CF3SO3 were dissolved in water while the other compounds were dissolved in the minimum DMSO amount prior to cell culture testing. A calculated amount of the stock drug DMSO solution was added to the cell culture media to reach a final maximum DMSO concentration of 0.5 %, which had no effects on cell viability.
(§2) Cell cultures. Human colon (HCT‐15), pancreatic (PSN‐1) and breast (MCF‐7) carcinoma cell lines along with human melanoma cells (A375) were obtained from American Type Culture Collection (ATCC, Rockville, MD). Embryonic kidney HEK293 cells were obtained from the European Collection of Cell Cultures (ECACC, Salisbury, UK). Human ovarian 2008 cancer cells were kindly provided by Prof. G. Marverti (Dept. of Biomedical Science of Modena University, Italy). MCF‐7 ADR cells were kindly provided by Prof. N. Colabufo (Dept. Pharmacy, University of Bari, Italy). Cell lines were maintained in the logarithmic phase at 37 °C in a 5 % CO2 atmosphere using the following culture media containing 10 % fetal calf serum (Euroclone, Milan, Italy), antibiotics (50 units/mL penicillin and 50 μg/mL streptomycin) and 2 mM L‐glutamine: i) RPMI‐1640 medium (Euroclone, Milan, Italy) for PSN‐1, 2008, HCT‐15, MCF‐7 and MCF‐7 ADR cells; ii) DMEM for A375 and HEK293 cells.
(§3) MTT assay. The growth inhibitory effect towards tumour cells was evaluated by means of MTT assay as previously described.[57] Briefly, 3–8×10^3 cells/well, dependent upon the growth characteristics of the cell line, were seeded in 96‐well microplates in growth medium (100 μL). After 24 h, the medium was removed and replaced with a fresh one containing the compound to be studied at the appropriate concentration. Triplicate cultures were established for each treatment. After 24 or 72 h, each well was treated with 10 μL of a 5 mg/mL MTT saline solution, and following 5 h of incubation, 100 μL of a sodium dodecyl sulfate (SDS) solution in HCl 0.01 M were added. After an overnight incubation, cell growth inhibition was detected by measuring the absorbance of each well at 570 nm using a Bio‐Rad 680 microplate reader. Mean absorbance for each drug dose was expressed as a percentage of the control untreated well absorbance and plotted against drug concentration. IC50 values, the drug concentrations that reduce the mean absorbance at 570 nm to 50 % of those in the untreated control wells, were calculated by the four‐parameter logistic (4‐PL) model. Evaluation was based on means from at least four independent experiments.

[2] = tested on: Human ovarian 2008 cancer cells; assay: MTT assay, 2D cell culture; assay type: cell-based; settings: 2008 cells, 72 h
Protocol: as §1, §2, §3

[3] = tested on: human melanoma cells (A375); assay: MTT assay, 2D cell culture; assay type: cell-based; settings: 72 h
Protocol: as §1, §2, §3

[4] = tested on: Human colon (HCT‐15) carcinoma cell line; assay: MTT assay, 2D cell culture; assay type: cell-based; settings: HCT‐15 cells, 72 h
Protocol: as §1, §2, §3

[5] = tested on: Human breast (MCF‐7) carcinoma cell line; assay: MTT assay, 2D cell culture; assay type: cell-based; settings: MCF‐7 cells, 72 h
Protocol: as §1, §2, §3

[6] = tested on: 3D cell spheroids of human ovarian (2008) cancer cells; assay: Acid phosphatase (APH) assay, 3D spheroid culture; assay type: cell-based; settings: 2008 spheroids, 72 h, APH test
Excerpt: (§4) The remarkable cell‐killing effect observed in 2D cultured cells prompted us to evaluate the in vitro antitumor activity of the complexes on 3D cell cultures. Differently from 2D monolayer culture, 3D spheroid cell culture systems comprise cancer cells in various cell growth stages. Consequently, the multicellular cancer spheroid model is recognized to better reflect the tumour mass in vivo regarding drug permeation, cell interactions, gene expression, hypoxia and nutrient gradients with respect to monolayer cell cultures, making 3D models more predictive than conventional 2D monolayer cultures in screening antitumor drugs.[38] Table 6 summarizes the IC50 values obtained after treatment of 3D cell spheroids of human ovarian (2008) and pancreatic (PSN‐1) cancer cells with the diiron complexes and cisplatin.
(§5) Spheroid cultures. Spheroid cultures were obtained by seeding 2.5×10^3 cells/well in round bottom non‐tissue culture treated 96 well‐plate (Greiner Bio‐one, Kremsmünster, Austria) in phenol red free RPMI‐1640 medium (Sigma Chemical Co.), containing 10 % FCS and supplemented with 20 % methyl cellulose stock solution.
(§6) Acid phosphatase (APH) assay. An APH modified assay was used for determining cell viability in 3D spheroids, as previously described.[58] IC50 values were calculated with a four‐parameter logistic (4‐PL) model. All the values are the means ± SD of not less than four independent experiments.

[7] = tested on: 3D cell spheroids of human pancreatic (PSN‐1) cancer cells; assay: Acid phosphatase (APH) assay, 3D spheroid culture; assay type: cell-based; settings: PSN‐1 spheroids, 72 h, APH test
Excerpt: as §4, §5, §6

[8] = Octanol/water partition coefficient, shake-flask method and UV/Vis; settings: octanol/water, 21 °C
Protocol: Octanol/water partition coefficients (log Pow ). Partition coefficients (P ow; IUPAC: K D partition constant[53]), defined as P ow=corg/caq, where corg and caq are molar concentrations of the selected compound in the organic and aqueous phase, respectively, were determined by the shake‐flask method and UV/Vis measurements.[[16a], [54]] Deionized water and octan‐1‐ol were vigorously stirred for 24 h, to enable saturation of both phases, then separated by centrifugation. A stock solution of the selected Fe compound (ca. 2 mg) was prepared by first adding acetone (50 μL, to help solubilization), followed by water‐saturated octanol (2.5 mL). The solution was diluted with water‐saturated octanol (ca. 1 : 3 v/v ratio, cFe2 ≈10^−4 M, so that 1.5≤A≤2.0 at λ max) and its UV/Vis spectrum was recorded ( A0/org ). An aliquot of the solution (V org=1.2 mL) was transferred into a test tube and octanol‐saturated water (V org=V aq=1.2 mL) was added. The mixture was vigorously stirred for 30 min at 21 °C then centrifuged (RCF 805, 5 min; Hettich EBA 8G). The UV/Vis spectrum of the organic phase was recorded ( Af/org ) and the partition coefficient was calculated as P ow= Af/org /( A0/org g− Af/org ) where A0/org and Af/org are the absorbance in the organic phase before and after partition with the aqueous phase, respectively.[53] For [2B]BF4, [2C]Cl and [3F]CF3SO3 an inverse procedure was followed, starting from a solution of the compound in octanol‐saturated water. The partition coefficient was calculated as P ow=( A0/aq − Af/aq )/ Af/aq where A0/aq and Af/aq are the absorbance in the aqueous phase before and after partition with the organic phase, respectively.

[9] = PSN-1 cells, 24 h, read-out: IC50 (µM) ± SD
[10] = PSN‐1 cells, 72 h, read-out: IC50 (μM)±SD

Substance	IC50 [1, 9]	IC50 [1, 10]	IC50 [2]	IC50 [3]	IC50 [4]	IC50 [5]	IC50 [6]	IC50 [7]	Log P ow [8]	Log P ow ([8]; listed as [5H]^+)	Log P ow ([8]; listed as [4G]^+)	IC50±SD (μM) [6]	IC50±SD (μM) [7]	Log P ow ([8]; listed as [2A]^+)
[Fe2Cp2(CO)2(μ‐CO){μ‐CNBn2}]X [[5H]CF3SO3]	112 ± 2.4 µM	33.7 ± 4.2 µM	37.4 ± 5.2 µM	30.8 ± 5.1 µM	32.5 ± 4.8 µM	36.2 ± 6.1 µM	73.2 ± 6.2 µM	86.2 ± 6.4 µM	0.2±0.02	≈ 0	–	–	–	–
[Fe2Cp2(CO)2(μ‐CO){μ‐CNMe(C6H11)}]X [[2C]CF3SO3]	94.2 ± 3.8 µM	15.3 ± 2.7 µM	28.4 ± 5.4 µM	16.8 ± 2.1 µM	9.2 ± 1.8 µM	17.3 ± 3.3 µM	66.4 ± 8.6 µM	78.2 ± 9.1 µM	−0.46±0.02	–	–	–	–	–
[Fe2Cp2(CO)2(μ‐CO){μ‐CNMe(4‐C6H4OMe)}]CF3SO3 [[2D]CF3SO3]	35 ± 2 µM	16.2 ± 2.9 µM	21.3 ± 3.1 µM	15.5 ± 2.6 µM	15.6 ± 3.5 µM	14.3 ± 2.6 µM	42.8 ± 4.2 µM	53.7 ± 6.1 µM	−0.25±0.04	–	–	–	–	–
[Fe2Cp2(CO)2(μ‐CO){μ‐CNEt(2‐naphthyl)}]BF4 [[4G]BF4]	69.5 ± 2.1 µM	25.6 ± 4.5 µM	38.8 ± 6.9 µM	26.2 ± 5.6 µM	22.9 ± 5.8 µM	21.4 ± 3.6 µM	58.9 ± 4.8 µM	77.4 ± 8.4 µM	0.1±0.1	–	≈ 0	–	–	–

Second part, the substance after the results:

IC50 [1, 9]	IC50 [1, 10]	IC50 [2]	IC50 [3]	IC50 [4]	IC50 [5]	IC50 [6]	IC50 [7]	Log P ow [8]	Log P ow ([8]; listed as [5H]^+)	Log P ow ([8]; listed as [4G]^+)	IC50±SD (μM) [6]	IC50±SD (μM) [7]	Log P ow ([8]; listed as [2A]^+)	Substance
> 200 µM	> 100 µM	> 100 µM	> 100 µM	> 100 µM	> 100 µM	> 100 µM	> 100 µM	–	–	–	–	–	–	[Fe2Cp2(CO)2(μ‐CO){μ‐CNMe(CH2PO3Et2)}]X [[2B]BF4]
> 200 µM	> 100 µM	> 100 µM	> 100 µM	> 100 µM	> 100 µM	> 100 µM	> 100 µM	−1.01±0.02	–	–	ineffective	ineffective	–	[Fe2Cp2(CO)2(μ‐CO){μ‐CNMe(CH2CHCH2)}]X [[3F]CF3SO3]
144 ± 16 µM	54.3 ± 6.2 µM	55.5 ± 4.8 µM	50.8 ± 6.1 µM	69.5 ± 6.7 µM	63.2 ± 5.5 µM	> 100 µM	> 100 µM	0.0±0.1	–	–	–	–	≈ 0	[Fe2Cp2(CO)2(μ‐CO){μ‐CNMe(1H‐indol‐6‐yl)}]CF3SO3 [[2A]CF3SO3]

Source: article PMC8362065, “Easily Available, Amphiphilic Diiron Cyclopentadienyl Complexes Exhibit in Vitro Anticancer Activity in 2D and 3D Human Cancer Cells through Redox Modulation Triggered by CO Release” (Chemistry (Weinheim an Der Bergstrasse, Germany), 2021)
